pIC50: −log10 of the molar value. Values after ≈ are worked out from the molar mass of the structure shown.
Key:
[1] = Solubility in cell culture medium by HPLC analysis; assay type: physicochemical
[2] = Antitumor activity against human EC1 cells assessed as cell growth inhibition incubated for 72 hrs by MTT assay; assay type: functional, cell-based; details: EC1, 72 h
[3] = test system: MGC-803; assay: Antitumor activity against human MGC-803 cells assessed as cell growth inhibition incubated for 72 hrs by MTT assay; assay type: functional, cell-based; details: MGC-803, 72 h
[4] = test system: MCF7; assay: Antitumor activity against human MCF7 cells assessed as cell growth inhibition incubated for 72 hrs by MTT assay; assay type: functional, cell-based; details: MCF7, 72 h
[5] = test system: PC-3; assay: Antitumor activity against human PC-3 cells assessed as cell growth inhibition incubated for 72 hrs by MTT assay; assay type: functional, cell-based; details: PC-3, 72 h
[6] = test system: NCI-H1299; assay: Antitumor activity against human NCI-H1299 cells assessed as cell growth inhibition incubated for 72 hrs by MTT assay; assay type: functional, cell-based; details: NCI-H1299, 72 h
[7] = molecular target: S-phase kinase-associated protein 2/Cyclin-dependent kinases regulatory subunit 1/S-phase kinase-associated protein 1 (Homo sapiens, UniProt Q13309); assay: Inhibition of GST-tagged Skp2/Skp1 (unknown origin)/His6-tagged Cks1 (unknown origin) interaction preincubated with Skp2/Skp1 for 10 mins followed by Cks1 addition measured after 20 mins by HTRF assay; assay type: protein assay
Sequence of S-phase kinase-associated protein 2/Cyclin-dependent kinases regulatory subunit 1/S-phase kinase-associated protein 1 (P61024 whole entry): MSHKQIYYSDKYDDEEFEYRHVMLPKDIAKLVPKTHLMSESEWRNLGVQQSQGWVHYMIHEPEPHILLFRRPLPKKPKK
Sequence of S-phase kinase-associated protein 2/Cyclin-dependent kinases regulatory subunit 1/S-phase kinase-associated protein 1 (Q13309 whole entry): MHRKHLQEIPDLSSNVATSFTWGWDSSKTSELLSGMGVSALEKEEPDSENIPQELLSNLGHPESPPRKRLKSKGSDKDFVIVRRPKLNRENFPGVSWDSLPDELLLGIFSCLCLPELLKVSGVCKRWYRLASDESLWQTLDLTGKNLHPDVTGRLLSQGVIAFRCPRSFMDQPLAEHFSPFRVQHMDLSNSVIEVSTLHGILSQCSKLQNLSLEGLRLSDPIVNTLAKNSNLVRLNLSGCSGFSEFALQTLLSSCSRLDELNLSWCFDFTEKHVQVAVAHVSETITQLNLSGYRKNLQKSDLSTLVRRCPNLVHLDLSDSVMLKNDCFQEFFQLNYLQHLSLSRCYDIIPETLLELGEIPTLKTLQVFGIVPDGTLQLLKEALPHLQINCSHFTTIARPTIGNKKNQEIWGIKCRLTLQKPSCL
Sequence of S-phase kinase-associated protein 2/Cyclin-dependent kinases regulatory subunit 1/S-phase kinase-associated protein 1 (P63208 whole entry, further chain): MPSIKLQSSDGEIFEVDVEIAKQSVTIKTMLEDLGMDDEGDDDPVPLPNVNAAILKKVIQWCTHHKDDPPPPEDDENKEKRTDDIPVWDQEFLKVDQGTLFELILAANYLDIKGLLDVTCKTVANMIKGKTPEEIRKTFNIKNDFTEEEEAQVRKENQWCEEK

SMILES | pIC50 [7] | also measured
O=C(NC1CCN(c2cnc(-c3ccccc3)c(-c3ccccc3)n2)CC1)c1ccccc1 |  | solubility [1]: 0.1 µg/mL (≈ 0.23 µM); pIC50 [2]: < 4.00; pIC50 [3]: 4.38; pIC50 [4]: 4.60; pIC50 [5]: < 4.00; pIC50 [6]: < 4.00
CC(C)Nc1cnc(-c2ccccc2)c(-c2ccccc2)n1 | < 4.30 | 
COc1cnc(-c2ccccc2)c(-c2ccccc2)n1 | < 4.30 | 
CN(C)c1ccc(-c2ncc(N3CCC(CNC(=O)C(C)(C)C)CC3)nc2-c2ccccc2)cc1 | 5.28 | 
CC(C)(C)C(=O)NCC1CCN(c2cnc(Br)c(-c3ccccc3)n2)CC1 | < 4.60 | 
c1ccc(-c2ncc(NC3CCCCC3)nc2-c2ccccc2)cc1 | < 4.30 | 
CC(C)N(CCCCOCC(=O)Nc1ccccc1)c1cnc(-c2ccccc2)c(-c2ccccc2)n1 | < 4.30 | 
CS(=O)(=O)NC(=O)COCCCCNc1cnc(-c2ccccc2)c(-c2ccccc2)n1 | < 4.30 | 
CC(C)(C)OC(=O)N1CCN(c2cnc(-c3ccccc3)c(-c3ccccc3)n2)CC1 | 5.77 | solubility [1]: 0.13 µg/mL (≈ 0.312 µM); pIC50 [2]: 4.28; pIC50 [3]: 4.33; pIC50 [4]: 4.38; pIC50 [5]: 4.02; pIC50 [6]: < 4.00
c1ccc(-c2ncc(N3CCSCC3)nc2-c2ccccc2)cc1 | < 4.30 | 
c1ccc(-c2ncc(NCCN3CCOCC3)nc2-c2ccccc2)cc1 | < 4.30 | 
CC(C)(C)C(=O)NCC1CCN(c2cnc(-c3cncnc3)c(-c3ccccc3)n2)CC1 | < 4.60 | 
CC(C)N(CCCCOCC(=O)Nc1nccs1)c1cnc(-c2ccccc2)c(-c2ccccc2)n1 | < 4.30 | 
CC(C)(C)C(=O)NCC1CCN(c2cnc(-c3ccccc3)c(-c3ccccc3)n2)CC1 |  | solubility [1]: 0.1 µg/mL (≈ 0.233 µM); pIC50 [2]: 4.12; pIC50 [3]: < 4.00; pIC50 [4]: 4.29; pIC50 [5]: 4.17; pIC50 [6]: 4.23
CC(C)(C)C(=O)NCC1CCN(c2cnc(-c3ccc(CO)cc3)c(-c3ccccc3)n2)CC1 |  | solubility [1]: 0.06 µg/mL (≈ 0.131 µM); pIC50 [2]: < 4.00; pIC50 [3]: < 4.00; pIC50 [4]: < 4.00; pIC50 [5]: < 4.00; pIC50 [6]: 4.00
CS(=O)(=O)NC(=O)COCCCCN(Cc1ccccc1)c1cnc(-c2ccccc2)c(-c2ccccc2)n1 | < 4.30 | 
Clc1cnc(-c2ccccc2)c(-c2ccccc2)n1 | < 4.30 | 
CC(C)(C)C(=O)NCC1CCN(c2cnc(C3CCCCC3)c(-c3ccccc3)n2)CC1 | < 4.60 | 
CN1CCN(c2cnc(-c3ccccc3)c(-c3ccccc3)n2)CC1 | < 4.30 | 
CC(C)(C)OC(=O)NCCCNc1cnc(-c2ccccc2)c(-c2ccccc2)n1 | < 4.60 | 
CC(C)(C)C(=O)NCC1CCN(c2cnc(-c3ccccc3CO)c(-c3ccccc3)n2)CC1 | < 4.60 | 
CC(C)c1ncc(N2CCC(CNC(=O)C(C)(C)C)CC2)nc1-c1ccccc1 | < 4.60 | 
O=C(N1CCOCC1)N1CCN(c2cnc(-c3ccccc3)c(-c3ccccc3)n2)CC1 | < 4.60 | 
CN(C)CCN(C)c1cnc(-c2ccccc2)c(-c2ccccc2)n1 | < 4.30 | 

SMILES | pIC50 [7] | also measured
Oc1cnc(-c2ccccc2)c(-c2ccccc2)n1 | < 4.30 | 
CC(C)(C)C(=O)NCC1CCN(c2cnc(-c3ccncc3)c(-c3ccccc3)n2)CC1 | < 4.60 | 
CC(C)(C)C(=O)NCC1CCN(c2cnc(-c3ccco3)c(-c3ccccc3)n2)CC1 | 5.09 | 
O=C(NCC1CCN(c2cnc(-c3ccccc3)c(-c3ccccc3)n2)CC1)N1CCOCC1 |  | solubility [1]: 0.55 µg/mL (≈ 1.2 µM); pIC50 [2]: 4.29; pIC50 [3]: 4.23; pIC50 [4]: 4.33; pIC50 [5]: 4.54; pIC50 [6]: 4.52
CC(C)(C)C(=O)N1CCN(c2cnc(-c3ccccc3)c(-c3ccccc3)n2)CC1 | 4.88 | 
Cc1ccc(S(=O)(=O)NC(=O)COCCCCN(c2cnc(-c3ccccc3)c(-c3ccccc3)n2)C(C)C)cc1 | < 4.30 | 
CN(C)CCNc1cnc(-c2ccccc2)c(-c2ccccc2)n1 | < 4.30 | 
C=Cc1ncc(N2CCC(CNC(=O)C(C)(C)C)CC2)nc1-c1ccccc1 | < 4.60 | 
CC1CN(c2cnc(-c3ccccc3)c(-c3ccccc3)n2)CCN1C(=O)OC(C)(C)C (configuration not stated) | < 4.60 | 
CC(C)(C)C(=O)NCC1CCN(c2cnc(-c3cn[nH]c3)c(-c3ccccc3)n2)CC1 | < 4.60 | 
CC(C)(C)C(=O)NCC1CCN(c2cnc(-c3ccc(S(C)(=O)=O)cc3)c(-c3ccccc3)n2)CC1 | 5.57 | solubility [1]: 0.19 µg/mL (≈ 0.375 µM); pIC50 [2]: 4.05; pIC50 [3]: 4.06; pIC50 [4]: 4.18; pIC50 [5]: 4.20; pIC50 [6]: 4.29
C=CC(=O)N1CCN(c2cnc(-c3ccccc3)c(-c3ccccc3)n2)CC1 | < 4.60 | 
CC(C)(C)C(=O)NCC1CCN(c2cnc(-c3ccc(C(F)(F)F)cc3)c(-c3ccccc3)n2)CC1 | 4.96 | 
CNc1cnc(-c2ccccc2)c(-c2ccccc2)n1 | < 4.30 | 
CN(CCNC(=O)OC(C)(C)C)c1cnc(-c2ccccc2)c(-c2ccccc2)n1 | 4.69 | 
CC(C)N(CCCCOCC(=O)O)c1cnc(-c2ccccc2)c(-c2ccccc2)n1 [LASELIPAG] | < 4.30 | 
CC(C)N(CCCCOCC(=O)N1CCOCC1)c1cnc(-c2ccccc2)c(-c2ccccc2)n1 | 4.28 | 
CS(=O)(=O)NC(=O)COCCNc1cnc(-c2ccccc2)c(-c2ccccc2)n1 | < 4.30 | 
CN(C)c1cnc(-c2ccccc2)c(-c2ccccc2)n1 | 4.34 | 
CN(c1cnc(-c2ccccc2)c(-c2ccccc2)n1)C1CCCCC1 | < 4.30 | 
O=C(C1CCCCC1)N1CCN(c2cnc(-c3ccccc3)c(-c3ccccc3)n2)CC1 | < 4.60 | 
CC(C)(C)OC(=O)N1CCCN(c2cnc(-c3ccccc3)c(-c3ccccc3)n2)CC1 | 4.61 | 
CC(C)N(C)c1cnc(-c2ccccc2)c(-c2ccccc2)n1 | < 4.30 | 
CC(C)(C)C(=O)NCC1CCN(c2cnc(-c3cccc(CO)c3)c(-c3ccccc3)n2)CC1 | < 4.60 | 

Continued, in another order:

pIC50 [7] | SMILES | also measured
< 4.30 | CN(C)C1CCN(c2cnc(-c3ccccc3)c(-c3ccccc3)n2)CC1 | 
< 4.60 | CN(C(=O)OC(C)(C)C)C1CCN(c2cnc(-c3ccccc3)c(-c3ccccc3)n2)CC1 | 
4.60 | NC1CCN(c2cnc(-c3ccccc3)c(-c3ccccc3)n2)CC1 | 
< 4.60 | O=C(c1cccs1)N1CCN(c2cnc(-c3ccccc3)c(-c3ccccc3)n2)CC1 | 
5.00 | O=C(CCl)N1CCN(c2cnc(-c3ccccc3)c(-c3ccccc3)n2)CC1 | 
5.07 | O=C(NCC1CCN(c2cnc(-c3ccccc3)c(-c3ccccc3)n2)CC1)c1cccs1 | 
< 4.30 | c1ccc(-c2ncc(N3CCOCC3)nc2-c2ccccc2)cc1 | 
4.87 | O=C(NC1CCN(c2cnc(-c3ccccc3)c(-c3ccccc3)n2)CC1)Oc1ccccc1 | 
4.81 | O=C(NCC1CCN(c2cnc(-c3ccccc3)c(-c3ccccc3)n2)CC1)C(F)(F)F | 
4.88 | O=C(CCCl)NCC1CCN(c2cnc(-c3ccccc3)c(-c3ccccc3)n2)CC1 | 
5.00 | CCC(=O)N1CCN(c2cnc(-c3ccccc3)c(-c3ccccc3)n2)CC1 | 
5.64 | CC(C)(C)OC(=O)NCC1CCN(c2cnc(-c3ccccc3)c(-c3ccccc3)n2)CC1 | solubility [1]: 0.51 µg/mL (≈ 1.15 µM); pIC50 [2]: 4.34; pIC50 [3]: 4.63; pIC50 [4]: 4.74; pIC50 [5]: 4.93; pIC50 [6]: 4.38
< 4.60 | O=C(CCCl)N1CCN(c2cnc(-c3ccccc3)c(-c3ccccc3)n2)CC1 | 
4.75 | CC(=O)N1CCN(c2cnc(-c3ccccc3)c(-c3ccccc3)n2)CC1 | 
5.24 | O=C(C1CC1)N1CCN(c2cnc(-c3ccccc3)c(-c3ccccc3)n2)CC1 | 
5.48 | O=C(NCC1CCN(c2cnc(-c3ccccc3)c(-c3ccccc3)n2)CC1)C1CC1 | 
< 4.60 | CC(C)(C)OC(=O)NC1CCCN(c2cnc(-c3ccccc3)c(-c3ccccc3)n2)C1 (configuration not stated) | 
5.07 | O=C(NCC1CCN(c2cnc(-c3ccccc3)c(-c3ccccc3)n2)CC1)C1CCCCC1 | 

pIC50 [7] | SMILES | also measured
< 4.60 | O=C(CBr)N1CCN(c2cnc(-c3ccccc3)c(-c3ccccc3)n2)CC1 | 
< 4.30 | OCC1CCN(c2cnc(-c3ccccc3)c(-c3ccccc3)n2)CC1 | 
4.99 | CC(C)(C)C(=O)NC1CCN(c2cnc(-c3ccccc3)c(-c3ccccc3)n2)CC1 | 
< 4.60 | O=C(NC1CCN(c2cnc(-c3ccccc3)c(-c3ccccc3)n2)CC1)OCc1ccccc1 | 
< 4.60 | CC(C)(C)OC(=O)NC1CCN(c2cnc(-c3ccccc3)c(-c3ccccc3)n2)C1 (configuration not stated) | 
4.86 | CC(C)(C)OC(=O)NC1CCN(c2cnc(-c3ccccc3)c(-c3ccccc3)n2)CC1 | 
5.55 | CCC(=O)NCC1CCN(c2cnc(-c3ccccc3)c(-c3ccccc3)n2)CC1 | solubility [1]: 0.57 µg/mL (≈ 1.42 µM); pIC50 [2]: 4.28; pIC50 [3]: 4.36; pIC50 [4]: 4.24; pIC50 [5]: 4.66; pIC50 [6]: 4.17
4.91 | CC(=O)NCC1CCN(c2cnc(-c3ccccc3)c(-c3ccccc3)n2)CC1 | 
< 4.30 | CC1CCN(c2cnc(-c3ccccc3)c(-c3ccccc3)n2)CC1 | 
< 4.60 | O=C(CCl)NCC1CCN(c2cnc(-c3ccccc3)c(-c3ccccc3)n2)CC1 | 
< 4.60 | O=C(CBr)NCC1CCN(c2cnc(-c3ccccc3)c(-c3ccccc3)n2)CC1 | 
< 4.60 | Cc1ccc(S(=O)(=O)NC2CCN(c3cnc(-c4ccccc4)c(-c4ccccc4)n3)CC2)cc1 | 
< 4.60 | CC(C)COC(=O)NC1CCN(c2cnc(-c3ccccc3)c(-c3ccccc3)n2)CC1 | 
4.75 | O=C(c1ccccc1)N1CCN(c2cnc(-c3ccccc3)c(-c3ccccc3)n2)CC1 | 
< 4.60 | CCS(=O)(=O)NC1CCN(c2cnc(-c3ccccc3)c(-c3ccccc3)n2)CC1 | 
< 4.60 | C=CC(=O)NCC1CCN(c2cnc(-c3ccccc3)c(-c3ccccc3)n2)CC1 | 
< 4.60 | CC(C)(C)C(=O)NCC1CCN(c2cnc(-c3ccc(N)cc3)c(-c3ccccc3)n2)CC1 | 

Source: ChEMBL document CHEMBL5338791, “Discovery of Novel 1,3-Diphenylpyrazine Derivatives as Potent S-Phase Kinase-Associated Protein 2 (Skp2) Inhibitors for the Treatment of Cancer” (J Med Chem, 2023)
